Reference: patent publication US9718809B2, “Bisarylsulfonamides useful in the treatment of inflammation and cancer” (Kancera AB, priority 2011, dated 2017)

Experiments:
F-2,6-P2 in NUGC-3 cells = assay: Quantification of F-2,6-P2 (Van Schaftingen coupled enzyme assay) in NUGC-3 cells; assay type: cell-based; conditions: Homo sapiens; NUGC-3 cells seeded at 25 000 cells/well; read-out: IC50 based on quantification of F-2,6-P2
Source text: (§1) A method for quantification of F-2,6-P2 has been described by Van Schaftingen et al. (1982) Eur. J. Biochem. 129, 191-5. This sensitive assay is based on the potent activation of pyrophosphate dependent phosphofructokinase-1 (PPi-PFK) from potato tubers by F-2,6-P2. The use of a series of coupled enzymes leads to a consumption of NADH (nicotinamide adenine dinucleotide) that can be followed spectrophotometrically (an updated protocol is available in Van Schaftingen, (1984) Methods of Enzymatic Analysis (Bergmeyer, H. U., ed.), 3rd edn., vol. 6, pp. 335-341, Verlag Chemie, Weinheim). A protocol for measurements in 96-well microtiter plate format is also available (Bruni et al., (1989) Anal. Biochem. 178, 324-6).
(§2) The levels of F-2,6-P2 have been determined using the van Shaftingen assay as described in the protocol below, in six different cancer cell lines endogenously expressing varying levels of the different isoforms of PFK-2/BPase-2 (MCF-7, PANC-1, NUGC-3, SW480, SW620 and MIA PaCa-2). All reagents were purchased from commercial sources or prepared in-house.
Cell line C (NUGC-3, human gastric cancer cell line): NUGC-3 cells (JCRB0822), lot no. 04272009. Growth medium: RPMI1640, #R8758, Sigma-Aldrich; 10% FBS, Invitrogen, 10270-106 or Dulbecco's Modified Eagle's Medium, DMEM, VWR, LONZ12-604F; 10% FBS, Invitrogen, 10270-106. Cells were seeded at a concentration of ˜350 000 cells/mL in 100 μL growth medium (˜35 000 cells/well).
Starvation medium (cell lines A-F): DMEM/F12 without phenol red and glucose free, SVA, 991373; 0.25% FBS, Invitrogen, 10270-106.
Induction medium (cell lines A-F): DMEM/F12 without phenol red and glucose free, SVA, 991373; 0.25% FBS, Invitrogen, 10270-106 (same as starvation medium).
Cells were seeded in 96-well Corning Costar tissue culture plates (CLS3595, Sigma-Aldrich) using the concentrations specified above for the different cell lines A-F and incubated over night at 37° C. and 5% CO2. Row A in the plate was left empty and the cell lines added to rows B-H. Next day the growth medium was discarded and replaced with 100 μL starvation medium. The plates were incubated for 18 h at 37° C. and 5% CO2. After 18 h of starvation the cells were induced with 100 μL compound or control solutions. Compounds were either tested in two concentrations (50 μM and 10 μM) or in dose response curves starting from 50 μM. The final DMSO concentration in assay plates was 0.5%. Also a dose response curve of a reference inhibitor was included in row H on each plate. All compounds were tested in duplicate plates. Compounds (in 96 well CLS 3365, Sigma-Aldrich plates) were serial diluted in DMSO from 10 mM compound DMSO stock solutions with Janus (automated liquid handling workstation from PerkinElmer). Five μL were transferred to a Greiner deep well plate (736-0155, VWR) with 495 μL starvation medium. The final start concentration of compounds in the dilution plate was 100 μM, 1% DMSO. For compounds tested as single points, 10 mM compound solutions were diluted five fold in DMSO to 2 mM, followed by the transfer of 5 μL to separate dilution plates with 495 μL starvation medium. The final concentrations of compounds in these dilution plates were 100 or 20 μM, respectively, and final concentration of DMSO was 1%. The plates were incubated at 37° C. and 5% CO2 for 1 h, followed by the addition of 10 μL 20 mM D-glucose in starvation medium. Controls, with and without 1 mM glucose, were included in row B. The final assay volume was 210 μL per well. After 2 h of incubation at 37° C. and 5% CO2, the supernatants were discarded and the cells lysed by the addition of 25 μL 250 mM NaOH. The plates were incubated at 37° C. and 5% CO2 for 5 min followed by an addition of 75 μL MilliQ dH2O. The supernatants were further diluted with 210 μL MilliQ dH2O to a final concentration of 20 mM NaOH. 200 μL were transferred to NUNC 96-well plates (7322661, VWR) and the plates were sealed and stored at −20° C. until analysis. […]

F-2,6-P2 in SW480 cells = assay: Quantification of F-2,6-P2 (Van Schaftingen coupled enzyme assay) in SW480 cells; assay type: cell-based; conditions: Homo sapiens, read-out: IC50 based on quantification of F-2,6-P2
Source text: as §1, §2
Cell line D (SW480, human colorectal adenocarcinoma): SW480 cells (ATCC-CCL-228), lot. no. 58471880. Cells were seeded at a concentration of ˜350 000 cells/mL in 100 μL growth medium (˜35 000 cells/well).
Growth medium (cell lines B-F): Dulbecco's Modified Eagle's Medium, DMEM, VWR, LONZ12-604F; 10% FBS, Invitrogen, 10270-106. […]

[1] = system: F-2,6-P2 in MIA PaCa-2 cells; assay: Quantification of F-2,6-P2 (Van Schaftingen coupled enzyme assay) in MIA PaCa-2 cells; assay type: cell-based; conditions: Homo sapiens, read-out: IC50 based on quantification of F-2,6-P2
Source text: as §1, §2
Cell line F (MIA PaCa-2, human pancreatic carcinoma): MIA PaCa-2 cells (ATCC-CRL-1420), lot. no. 59270201. Cells were seeded at a concentration of ˜250 000 cells/mL in 100 μL growth medium (˜25 000 cells/well). […]

NMRI mice = assay: In vivo tolerance in NMRI mice; design: species or system mouse; conditions: 25 and 45 mg/kg; for histological examinations of organs: intraperitoneal daily for seven days, adrenal gland, brain, cerebellum, heart, intestines, kidneys, liver, lungs, mesenteric lymph node, pancreas, spleen; for macro observations during and after treatment: intraperitoneal injections daily for seven days
Method: In vivo tolerance was tested in NMRI mice using Examples 157 and 183 in 2 doses (25 and 45 mg/kg), following intraperitoneal injections daily for seven days.

[2] = Cell toxicity, CellTiter-Blue Cell Viability Assay; conditions: human, MIA PaCa-2 pancreatic carcinoma cells, MIA PaCa-2 cells, 72 h culture, read-out: IC50 based on cell toxicity
Method: The CellTiter-Blue® Cell Viability Assay provides a homogeneous, fluorometric method for estimating the number of viable cells present in multi-well plates. It uses the indicator dye resazurin to measure the metabolic capacity of cells. Viable cells retain the ability to reduce resazurin into resorufin, which is highly fluorescent.
Stock solutions (10 or 100 mM in DMSO) of compounds were serially diluted 1:2 in 11 concentrations. 25 nL/well (100 mM stock) or 50 nL/well (10 mM stock) were acoustically dispensed in assay plates with EDC acoustic dispenser. Final starting conc. in assay was 20 μM (0.2% DMSO) or 100 μM (0.1% DMSO) for test compounds.
Cells (MIA-PaCa-2; pancreatic carcinoma) were seeded in assay plates (384-well black/clear, Greiner #781091) pre-dispensed with compounds, 25 μL/well, and cultured for 72 h. The cell concentration was 750 cells/well. After 72 h culture, Celltiter Blue reagent was added (5 μL/well) and the plates were incubated for 2 h. The plates were read in an Envision fluorescence reader with Ex544 nm/Em590 nm. Results were calculated as % cytotoxicity compared to background (cells treated with 0.2% DMSO).

[3] = In vitro metabolic stability in human liver microsomes; assay type: in vitro ADME; conditions: pH 7.4, pooled human liver microsomes 0.5 mg/ml, NADPH 1 mM, compound 3 μM
Method: Pooled human liver microsomes (final protein conc 0.5 mg/ml), 0.1 M phosphate buffer (pH 7.4) and NADPH (final conc 1 mM) were pre-incubated at 37° C. Example 183 (final conc 3 μM) was added to initiate the reaction. A control incubation where 0.1 M phosphate buffer (pH 7.4) was added instead of NADPH was done as a parallel experiment. After incubation for 0, 5, 10, 30 and 45 min with NADPH (for 45 min in the control incubation), MeCN containing internal standard was added to stop the reactions. The samples were centrifuged at 2500 rpm for 20 min at 4° C. before analysis using LC-MS/MS.

MIA PaCa-2 xenografts = assay: Inhibition of tumour growth, MIA PaCa-2 xenografts in NMRI nude mice; assay type: in vivo, mouse; conditions: 45 mg/kg twice a day, 3 weeks
Method: FIG. 3 illustrates the effects of treatment with Example 183 on the growth of established xenografts from the human pancreatic carcinoma cell line MIA PaCa-2 in NMRI nude mice. NMRI nude mice were injected subcutaneously with MIA PaCa-2 cells. At an average tumor size of around 100 mm^3 mice were selected and randomized into treated (injected with substance) and control (vehicle treated) groups. Example 183 was administered at two doses, 25 mg/kg and 45 mg/kg, twice a day with 12 hours between administrations. From the day of inoculation the tumors were scored or measured three times a week using a digital caliper, and the body weights were determined at the same time points. The dose of injected substance was adjusted to the actual body weight of each animal. The dosing of the animals was in a period of 3 weeks.

[4] = Plasma exposure in NMRI nude mice; assay type: in vivo, mouse; conditions: 45 mg/kg, 0.5 h after last injection (day 21)
Method: In a related study using the same dosing schedule in NMRI nude mice, blood samples were drawn 0.5 h after last injection (day 21) to determine exposure of Example 183. Plasma, prepared by centrifugation of the blood, was frozen and kept at −20° C. Thawed plasma samples were precipitated with MeCN, centrifuged and the supernatants were analyzed by LC-MSMS. Standard samples, prepared by spiking blank plasma with Example 183, were used for quantification.

IC50 (F-2,6-P2 in SW480 cells) [nM]	IC50 [1] [nM]	half-life at 3 μM [3] [min]	microsomal CLint at 3 μM ([3]; read-out: intrinsic clearance) [µL/min/mg]	exposure of unbound compound in plasma versus in vitro IC50 value (MIA PaCa-2 cells) [4]	SMILES	IC50 (F-2,6-P2 in NUGC-3 cells) [nM]	histological examinations of organs (NMRI mice)	macro observations during and after treatment (NMRI mice)	IC50 at 72 h [2] [nM]	tumor growth compared to a vehicle treated group (MIA PaCa-2 xenografts)
6200	–	–	–	–	COC(=O)c1ccc(NS(=O)(=O)c2cccc(-c3ccccc3O)c2)cc1O [Example 82, Methyl 2-hydroxy-4-{[(2′-hydroxybiphenyl-3-yl)sulfonyl]amino}benzoate]	1080	–	–	–	–
–	2000	–	–	–	COC(=O)c1ccc(NS(=O)(=O)c2cc(-c3cc(F)ccc3O)c(Cl)s2)cc1O [Example 157, methyl 4-({[5-chloro-4-(5-fluoro-2-hydroxyphenyl)-2-thienyl]sulfonyl}amino)-2-hydroxybenzoate]	–	Specific lesions consistent with toxic damage were not observed	no sign of abnormal behavior or health problem	–	–
5400	–	–	–	–	O=C(OCCCN1CCOCC1)c1ccc(NS(=O)(=O)c2c(Cl)sc(Cl)c2Cl)cc1O [Example 164, 3-Morpholin-4-ylpropyl 2-hydroxy-4-{[(2,4,5-trichloro-3-thienyl)sulfonyl]amino}benzoate]	–	–	–	–	–
–	200	55	25	exceeded the in vitro IC50 value	O=C(OCCO)c1ccc(NS(=O)(=O)c2cccc(-c3cc(F)ccc3O)c2)cc1O [Example 183, 2-Hydroxyethyl 4-{[(5′-fluoro-2′-hydroxybiphenyl-3-yl)sulfonyl]amino}-2-hydroxybenzoate]	–	Specific lesions consistent with toxic damage were not observed	no sign of abnormal behavior or health problem	2600	significant inhibition (p<0.01)
